Source: patent US6346252B1, “Method of obtaining an antibacterial and/or antifungal extract from the algae, bonnemaisoniacea” (Algues et Mer (S.A.R.L.), priority 1996, dated 2002)

System: Pseudomonas aeruginosa strain
Assay: embedding of 1 ml and 0.1 ml samples of mother solution in PCA medium
Assay type: cell-based
Settings: for bacteria count in embedding: PCA medium 48 hours, strain at 1.9 10^8, bromoform 60 mg/l
Description: In order to test that the antibacterial and/or antifungal action is in fact related to a group of halogenated molecules of low molecular weight, an aqueous solution of 60 mg/l bromoform was prepared and its action compared with that of a permeate of nanofiltration at the threshold of 400 Daltons which therefore only contained micromolecules, in particular halogenated molecules. After embedding 1 ml and 0.1 ml samples in a PCA medium for 48 hours from a mother solution containing the product to be tested and the Pseudomonas aeruginosa strain at a concentration of 1.9 10^8, the results in the following table were obtained.
In this table, and in the following tables, “>>” means that bacteria developed and could not be counted.
Also, the microfiltration permeate was fractionated by subjecting it to ultrafiltration (uF) or nanofiltration (nF), and the antibacterial action on the Pseudomonas strain was measured for each fraction and at different times in accordance with the protocol described below. The following results were obtained:
Other tests were conducted to measure the influence of pH on the extract's activity and its ageing. Acidification was carried out during the so-called acidification stage of the method for obtaining the extract of the invention, using citric acid.

For `BrC(Br)Br` [Bromoform, bromoform], the “bacteria count in embedding” value (0.1 ml embedding) was “>>”, the “bacteria count in embedding” value (1 ml embedding) was “>>” and the “action against the Pseudomonas aeruginosa strain” value (bromoform at 1.5 times the concentration in the extract, permeate on second day after production) was “no action”.
